Assay results from patent US11584769B2, “Diterpene glycosides, compositions and purification methods” (The Coca-Cola Company, priority 2014, dated 2023).

How the values were obtained:
panelists = assay: Sensory evaluation of 1 and 3 (single sip protocol, taste panel); assay type: in vivo, human; details: 400 ppm in water, 4° C.; for Bitter Aftertaste Intensity / Sweet Linter Intensity / Other Intensity / Overall Max Bitterness Intensity / Overall Max Sweetness Intensity / Bitter Intensity (In mouth) / Sweet Intensity (In mouth): mean score; for Bitter Aftertaste Intensity / Sweet Linter Intensity: 1 minute after tasting; for Other Intensity: any aromatic other than sweet and bitter or mouthfeel; for Overall Max Bitterness Intensity / Overall Max Sweetness Intensity: up to 1 minute
Protocol: Samples were prepared as described in Table 1. All samples were served at 4° C.
Samples were evaluated using a single sip protocol as follows: • Samples were served at approximately 4° C. • Panelists were instructed to take 1 sip of the sample, hold in mouth for 5 seconds, expectorate comfortable with this), and rate the given attributes • A 5 minute break was placed between each sample and panelists were instructed to cleanse their palates with at least 1 bite of unsalted cracker and 2 sips of filtered water • Due to limited sample quantities, panelists were given the following amounts to test: • a 3 vs Reb M: 1.5 mL • 1 vs Reb M: 5 mL • Samples were randomized within each session for each panelist • All samples were presented in replicate in each session Samples were evaluated for: • Sweet taste intensity: maximum level of sweetness in mouth during 5 seconds • Bitter taste intensity: maximum level of bitterness in mouth during 5 seconds • Overall maximum sweet intensity: maximum sweet intensity experienced from the time the sip is taken up to 1 minute • Overall maximum bitter intensity: maximum […] intensity experienced from the time the sip is taken up to 1 minute • Other intensity: Intensity of any aromatic other than sweet and bitter (metallic, plastic, licorice, etc.) or mouthfeel/sensation • Sweet linger intensity: sweet intensity 1 minute after tasting the sample • Bitter aftertaste intensity: bitter intensity 1 minute after tasting the sample Data Analysis. A 3-way ANOVA was used to compare the sweeteners for each attribute, for 1 only, and significance was determined at p<0.05. Fishers's LSD was used to determine significant differences between mean scores.

[1] = Solubility observed when preparing NMR samples (solvent screen); assay type: physicochemical; details: for Dissolution of the sample in 250 μL of CD3OD: ~4.3 mg (4, CD3OD+TMS) or 3.8 mg (6) in 250 μL
Protocol: Isolation Procedure. Fractions collected during the final pre-concentration step were filtered through a stainless steel sieve and concentrated in vacuo using a Buchi® Rotary Evaporator, Model R-114. The concentrated solution was dried for 48-72 h using the Kinetics Flexi-Dry Personal Freeze Dryer, followed by vacuum oven drying at 37° C. for 24 h to remove residual moisture. MS and MS/MS. MS and MS/MS data were generated with a Waters QTof Micro mass spectrometer equipped with an electrospray ionization source. The sample was analyzed by negative ESI. The sample was diluted to a concentration of 0.1 mg/mL with H2O:MeCN (1:1) and introduced via flow injection for MS data acquisition, tuned for MS/MS and acquired by direct infusion. NMR. […] The ^1H, COSY, HSQC-DEPT and NOESY NMR data were acquired on Bruker Avance 500 MHz instruments with either a 2.5 mm inverse probe or a 5 mm broad band probe. The ^13C and HMBC NMR data were acquired at the Rensselaer Polytechnic Institute using their Bruker Avance 600 MHz instrument with a 5 mm cryo-probe. The ^1H and ^13C NMR spectra were referenced to the TMS resonance at δH 0.00 ppm and CD3OD resonance at 49.0 ppm, respectively. […] The sample was recovered and blown dry under nitrogen or lyophilized between each solvent screen]. Results and Discussion Unless otherwise noted, all solvent ratios are listed as percent by volume (v/v). Primary Purification. Approximately 300 g of Lot #CB-2977-171 was processed using the primary preparative HPLC method described above. […] Fraction 3 (Lot #JAM-D-10-3) contained the target of interest. Secondary Purification. Lot #JAM-D-10-3 (and equivalent lots) was reprocessed with conditions summarized above. […] Tertiary Purification. Fraction Lot #JAM-D-40-2 was reprocessed with conditions summarized above. Fractions with low level m/z 1776 targets were collected as CJP-C-128 (3, 4, 5, 7). These fractions were subsequently pooled to enhance signal strength for additional processing. Quaternary Purification. Fraction Lot #CJP-C-128 (3, 4, 5, 7) (and equivalent lots) were reprocessed with conditions summarized above. Fraction 1, Lot #CJP-C-130(1), was isolated for additional processing. Quinary Purification. Fraction Lot #CJP-C-130(1) (and equivalent lots) were reprocessed with conditions summarized above. Fraction 9, Lot #CJP-C-133(9), was isolated. […] Secondary Purification. Fraction Lot #CJP-C-133(9) was reprocessed with conditions summarized above. Final Batch Preparation. The purified solution was filtered through a stainless steel sieve to remove particulates. The solution was then concentrated by rotary evaporation and lyophilized for about 72 h. The final batch (4.3 mg), was isolated with >99% (AUC, CAD) purity. Mass Spectrometry. […]

[2] = 1 vs Reb M session, 5 mL sip, N=6
[3] = 3 vs Reb M session, 1.5 mL sip, N=3

Compound	Bitter Aftertaste Intensity (panelists; [2])	Sweet Linter Intensity (panelists; [2])	Bitter Aftertaste Intensity (panelists; [3])	Sweet Linter Intensity (panelists; [3])	Other Intensity (panelists; [2])	Other Intensity (panelists; [3])	Overall Max Bitterness Intensity (panelists; [2])	Overall Max Sweetness Intensity (panelists; [2])	Overall Max Bitterness Intensity (panelists; [3])	Overall Max Sweetness Intensity (panelists; [3])	Bitter Intensity (In mouth) (panelists; [2])	Sweet Intensity (In mouth) (panelists; [2])	Bitter Intensity (In mouth) (panelists; [3])	Sweet Intensity (In mouth) (panelists; [3])	Overall Max Sweetness compared to Reb M (panelists)	Sweet Intensity in Mouth compared to Reb M (panelists)	Sweet Linger Intensity compared to Reb M (panelists)	Solubility in solvent screen ([1]; pyridine-d5+TMS (~4 mg/170 μL), D2O+TSP (~4 mg/170 μL), DMSO-d6+TMS)	Dissolution of the sample in 250 μL of CD3OD [1]	Soluble portion of the sample in CD3OD+TMS ([1]; ~4.3 mg of sample in 250 μL of CD3OD+TMS)
C=C1C[C@@]23CC[C@H]4[C@@](C)(CCC[C@@]4(C)C(=O)O[C@@H]4O[C@H](CO)[C@@H](O)[C@H](O[C@@H]5O[C@H](CO)[C@@H](O)[C@H](O)[C@H]5O)[C@H]4O[C@@H]4O[C@H](CO)[C@@H](O)[C@H](O)[C@H]4O)[C@@H]2CC[C@]1(O[C@@H]1O[C@H](CO)[C@@H](O)[C@H](O[C@@H]2O[C@H](CO)[C@@H](O)[C@H](O)[C@H]2O)[C@H]1O[C@@H]1O[C@H](CO)[C@@H](O)[C@H](O)[C@H]1O)C3 [Reb M, rebaudioside M, reference compound]	0.5	3.6	0.3	2.5	0.8	0.3	0.8	8.4	1.4	6.3	0.7	7.8	0.4	7.4						
C=C1C[C@@]23CC[C@H]4[C@@](C)(CCC[C@@]4(C)C(=O)OC4OC(CO)C(O)C(OC5OC(CO)C(O)C(O)C5O)C4OC4OC(CO)C(O)C(O)C4O)[C@@H]2CCC1(OC1OC(CO)C(O)C(OC2OC(CO)C(O)C(O)C2O)C1OC1OC(COC2OC(CO)C(O)C(OC4OC(CO)C(O)C(O)C4O)C2OC2OC(CO)C(O)C(O)C2O)C(O)C(O)C1O)C3 (stereo partly shown) [diterpene glycoside 1]	0.8	0.0			1		0.8	1.1			0.7				significantly lower	significantly lower	significantly lower			
C=C1C[C@@]23CC[C@H]4[C@@](C)(CCC[C@@]4(C)C(=O)OC4OC(COC5OC(CO)C(O)C(OC6OC(CO)C(O)C(O)C6O)C5OC5OC(CO)C(O)C(O)C5O)C(O)C(OC5OC(CO)C(O)C(O)C5O)C4OC4OC(CO)C(O)C(O)C4O)[C@@H]2CCC1(OC1OC(CO)C(O)C(OC2OC(CO)C(O)C(O)C2O)C1OC1OC(CO)C(O)C(O)C1O)C3 (stereo partly drawn) [diterpene glycoside 3, (13-[(2-O-β-D-glucopyranosyl-3-O-β-D-glucopyranosyl)-β-D-glucopyranosyl)oxy] ent-kaur-16-en-19-oic acid-[(2-O-β-D-glucopyranosyl-3-O-β-D-glucopyranosyl-6-O-α-D-glucopyranosyl-(2-O-β-D-glucopyranosyl-3-O-β-D-glucopyranosyl)-β-D-glucopyranosyl) ester]]			0.3	0.9		0.5			1.3	5.6			0.3	5.4	slightly lower	slightly lower	significantly less			
C=C1C[C@@]23CC[C@H]4[C@@](C)(CCC[C@@]4(C)C(=O)OC4OC(CO)C(O)C(OC5OC(CO)C(O)C(O)C5O)C4OC4OC(CO)C(O)C(OC5OC(CO)C(O)C(OC6OC(CO)C(O)C(O)C6O)C5OC5OC(CO)C(O)C(O)C5O)C4O)[C@@H]2CCC1(OC1OC(CO)C(O)C(OC2OC(CO)C(O)C(O)C2O)C1OC1OC(CO)C(O)C(O)C1O)C3 (stereo partly shown) [diterpene glycoside 4]																		very poor solubility	did not dissolve readily	~1.5 mg/250 μL
C=C1C[C@@]23CC[C@H]4[C@@](C)(CCC[C@@]4(C)C(=O)OC4OC(CO)C(O)C(OC5OC(CO)C(O)C(O)C5O)C4OC4OC(COC5OC(CO)C(O)C(OC6OC(CO)C(O)C(O)C6O)C5OC5OC(CO)C(O)C(O)C5O)C(O)C(O)C4O)[C@@H]2CCC1(OC1OC(CO)C(O)C(OC2OC(CO)C(O)C(O)C2O)C1OC1OC(CO)C(O)C(O)C1O)C3 (stereo partly drawn) [diterpene glycoside 6, (13-[(2-O-β-D-glucopyranosyl-3-O-β-D-glucopyranosyl)-β-D-glucopyranosyl)oxy] ent-kaur-16-en-19-oic acid-[(2-O-β-D-glucopyranosyl-(6-O-α-D-glucopyranosyl-(2-O-β-D-glucopyranosyl-3-O-β-D-glucopyranosyl)-3-O-β-D-glucopyranosyl)-β-D-glucopyranosyl) ester]]																			did not dissolve completely	
